In BindingDB's records for doi:10.1016/j.bmcl.2008.01.038 (Inspire Pharmaceuticals, 2008):
pIC50: −log10 of the molar value.

experiment: Antagonist activity at P2Y12 receptor assessed as platelet aggregation by washed platelet assay

SMILES	pIC50
CCNC(=O)Nc1ncnc2c1ncn2[C@@H]1O[C@H](CN)[C@H]2O[C@H](/C=C/c3ccccc3)O[C@H]21	5.33
CCNC(=O)Nc1ncnc2c1ncn2[C@@H]1O[C@H](CSCC(=O)O)[C@H]2O[C@H](/C=C/c3ccccc3)O[C@H]21	5.42
CCNC(=O)Nc1ncnc2c1ncn2[C@@H]1O[C@H](CS(=O)(=O)CC(C)O)[C@H]2O[C@H](/C=C/c3ccccc3)O[C@H]21 (stereo partly specified)	5.60
CCNC(=O)Nc1ncnc2c1ncn2[C@@H]1O[C@H](CS(=O)(=O)CC(=O)O)[C@H]2O[C@H](/C=C/c3ccccc3)O[C@H]21	5.61
CCNC(=O)Nc1ncnc2c1ncn2[C@@H]1O[C@H](CNC(=O)CO)[C@H]2O[C@H](/C=C/c3ccccc3)O[C@H]21	5.53
CCNC(=O)Nc1ncnc2c1ncn2[C@@H]1O[C@H](COCc2ccc(C(=O)O)cc2)[C@H]2O[C@H](/C=C/c3ccccc3)O[C@H]21	5.88
CCNC(=O)Nc1ncnc2c1ncn2[C@@H]1O[C@H](CNCc2ccccc2F)[C@H]2O[C@H](/C=C/c3ccccc3)O[C@H]21	5.59
CCNC(=O)Nc1ncnc2c1ncn2[C@@H]1O[C@H](CNCC2CC2C(=O)O)[C@H]2O[C@H](/C=C/c3ccccc3)O[C@H]21 (stereo partly specified)	5.57
CCNC(=O)Nc1ncnc2c1ncn2[C@@H]1O[C@H](CNCC2CC2C(=O)OCC)[C@H]2O[C@H](/C=C/c3ccccc3)O[C@H]21 (stereo partly specified)	5.36
CCNC(=O)Nc1ncnc2c1ncn2[C@@H]1O[C@H](CNC(=O)c2cccs2)[C@H]2O[C@H](/C=C/c3ccccc3)O[C@H]21	5.65
CCNC(=O)Nc1ncnc2c1ncn2[C@@H]1O[C@H](CSCC(O)CO)[C@H]2O[C@H](/C=C/c3ccccc3)O[C@H]21 (stereo partly specified)	5.00
CCNC(=O)Nc1ncnc2c1ncn2[C@@H]1O[C@H](CNC(=O)c2ccco2)[C@H]2O[C@H](/C=C/c3ccccc3)O[C@H]21	5.31

Now those with a higher pIC50, led by results:

pIC50	SMILES
5.90	CCNC(=O)Nc1ncnc2c1ncn2[C@@H]1O[C@H](CO)[C@H]2O[C@H](/C=C/c3ccccc3)O[C@H]21
6.18	CCNC(=O)Nc1ncnc2c1ncn2[C@@H]1O[C@H](CC(=O)O)[C@H]2O[C@H](/C=C/c3ccccc3)O[C@H]21
6.21	CCNC(=O)Nc1ncnc2c1ncn2[C@@H]1O[C@H](COCc2cccc(C(=O)O)c2)[C@H]2O[C@H](/C=C/c3ccccc3)O[C@H]21
6.24	CCNC(=O)Nc1ncnc2c1ncn2[C@@H]1O[C@H](CN(CC2CC2C(=O)O)CC2CC2C(=O)O)[C@H]2O[C@H](/C=C/c3ccccc3)O[C@H]21 (stereo partly specified)
6.29	CCNC(=O)Nc1ncnc2c1ncn2[C@@H]1O[C@H](CNCC(=O)O)[C@H]2O[C@H](/C=C/c3ccccc3)O[C@H]21
6.31	CCNC(=O)Nc1ncnc2c1ncn2[C@@H]1O[C@H](CCC(=O)O)[C@H]2O[C@H](/C=C/c3ccccc3)O[C@H]21
6.61	CCNC(=O)Nc1ncnc2c1ncn2[C@@H]1O[C@H](COCC(=O)O)[C@H]2O[C@H](/C=C/c3ccccc3)O[C@H]21
6.70	CCNC(=O)Nc1ncnc2c1ncn2[C@@H]1O[C@H](C(=O)O)[C@H]2O[C@H](/C=C/c3ccccc3)O[C@H]21
7.40	CCNC(=O)Nc1ncnc2c1ncn2[C@@H]1O[C@H](COCc2ccccc2C(=O)O)[C@H]2O[C@H](/C=C/c3ccccc3)O[C@H]21
